From publication PMC5570892, “Indole-based perenosins as highly potent HCl transporters and potential anti-cancer agents” (Scientific Reports, 2017)
Several values for one entry are separate records, joined by “and”; a condition that tells them apart may be missing. Equal values may be shown once.

Key:
[1] = pKa by UV spectrophotometric titration in aqueous solution; format: physicochemical; conditions: for pK a (aq): apparent pKa, hexafluorophosphate buffered DMSO:water 50:50, 25 °C; for solubility in the pKa titration solvent system: hexafluorophosphate buffered DMSO:water 50:50
Text: The pK a at which protonation of the imine (N2, see Fig. 3) occurs gives an indication of the optimum pH for the binding of chloride anions. This is an important consideration in anti-cancer drug development as the external pH environment of cancer cells is mildly acidic (pH 6.7)[53] compared to that of healthy cells (pH 7.2–7.5)[54]. This can be exploited to selectively target cancer cells and potentially reduce the cytotoxic effects of perenosins when used as therapeutics for anti-cancer treatment. The apparent pK a values, shown in Table 1, for compounds 1d and 2–8 were determined both in aqueous solution (pK a (aq)) and in the presence of a 1-palmitoyl-2-oleoyl-sn-glycero-3-phosphocholine (POPC) lipid bilayer membrane (pK a (mem)). UV spectrophotometric titrations were conducted by varying the pH condition from neutral to acidic with the titration of either HPF6 or HCl.
The apparent pK a values were derived from nonlinear curve fitting of the absorbance plotted against the pH; global fitting of both wavelengths corresponding to the neutral and protonated species were performed whenever feasible, see Supplementary Information for details.
S6.1 pKa Studies in Aqueous Solution pKa values for compounds 1d, 2, 4, 5, 7 and 8 were determined experimentally in aqueous solution […]
in absorbance bet ween the UV-Vis spectra of the protonated and the neutral species. The titration solution was made up with a hexafluorophosphate buffered (100 mM) DMSO:water 50:50 solution (4990 μL) and a transporter solution (10 μL, 25 mM), and the pH of this was recorded. The UV-Vis spectra were recorded on an Agilent Cary 100 UV-Vis spectrophotometer at 25 °C with baseline correction, using standard 10 mm quartz glass cells. A baseline absorbance was measured on a hexafluorophosphate buffered (100 mM) DMSO:water 50:50 solution, and then the absorbance of the titration solution was measured. The pH of the solution was decreased stepwise by adding small aliquots of hexafluorophosphoric acid ([…]). After each pH decrease an absorbance measurement was taken. The absorbance at a certain wavelength (noted for each compound below) was plotted against the pH and then fitted using a dose response curve in OriginPro 9.1, where the point of inflection corresponds to the apparent pKa in aqueous solution.
Figure S38. Absorbance spectra taken over the course of a pH-spectrophotometric titration of 1d (25 mM) in a hexafluorophosphate buffered (100 mM) DMSO:water 50:50 mixture. Inset: Abs vs. pH with dose response curve fit and the point of inflection corresponding to the pKa value.
(1 picture or pasted object on this page, not shown here)

[2] = NMDG-Cl assay by HPTS (H^+/Cl^− symport); format: biochemical; conditions: for EC50 NMDG-Cl (by HPTS): H^+/Cl^− symport, no gramicidin or oleic acid; for EC50 (Gra) NMDG-Cl (by HPTS): in the presence of gramicidin 0.1 mol%; for EC50 (OA) NMDG-Cl (by HPTS): in the presence of oleic acid 2 mol%
Procedure: The selectivity for Cl^−>H^+/OH^− transport of the perenosins was quantified using a modified NMDG-Cl assay. Unilamellar vesicles loaded with HPTS (1 mM) and N-methyl-D-glucamine chloride (NMDG-Cl) (100 mM), buffered to pH 7 with HEPES (10 mM) were prepared. Free base NMDG (0.5 M) was added increasing the extravesicular solution to pH 8, and the dissipation of this gradient following the addition of receptors was monitored. Dissipation of pH gradient indicates H^+/Cl^− symport (or the functionally equivalent OH^−/Cl^− exchange) mediated by perenosins. Gramicidin D (Gra) is a proton channel added to facilitate H^+ transport. The addition of oleic acid (OA), a naturally occurring fatty acid found in cell membranes, allowed the investigation of the enhancement in H^+/Cl^− symport, in the presence of oleic acid. Anion transporters can assist the fatty acid flip-flop mechanism by taking on the role of a flippase for fatty acid anions via binding to the anionic carboxylate head group, masking the charge and allowing rapid passage of the head group through the lipid bilayer. This in turn accelerates the natural proton transport mediated by fatty acids in biological membranes.
For all cases EC50 values were obtained from dose-response experiments and subsequent Hill analysis (see Supplementary Information). Chloride selectivity was then quantified to give a selectivity factor (SG), shown in Table 2, using the ratio of the EC50 values. From the previous cationophore coupled assays, it was evident that the capability of perenosins to facilitate electrogenic chloride transport is negligible, therefore an absence in selectivity for Cl^−>H^+/OH^− was expected. […] FOA values for the overall H^+/Cl^− cotransport rate were calculated for compounds 1d and 2–6 in the presence of OA and are also shown in Table 2. […] In the presence of fatty acids, an alternative pathway that involves the diffusion of the fatty acid complex and free fatty acids could replace this step. […] This may be likely due to the competitive binding of the receptors to the carboxylate head group so inhibiting chloride binding and transport.
S10.8. General Procedure for the HPTS Assay
Unilamellar vesicles were prepared using previously reported literature procedures16. A lipid film of POPC (1-palmitoyl-2-oleoyl-sn-glycero-3-phosphocholine) was prepared from a chloroform solution under reduced pressure and then dried under vacuum for 4 or more hours. The lipid film was rehydrated by vortexing with an internal solution containing HPTS (1 mM). The lipid suspension was then subjected to 9 freeze-thaw cycles and left to rest at room temperature for 30 minutes. After this, the suspension was extruded 25 times through a 200 nm polycarbonate membrane resulting in unilamellar vesicles of a mean diameter of 200 nm. The un-encapsulated HPTS was removed by size exclusion chromatography using a sephadex G-25 column and an external solution eluent that does not contain HPTS. The lipid solution obtained after dialysis was diluted to a standard volume (usually 10 mL) with the external buffered solution to obtain a lipid stock of known concentration.
In each experiment identical internal and external solutions were used with various salts (NMDG -Cl or sodium gluconate) buffered with HEPES (10 mM) to pH 7.0, and are detailed below.
The lipid stock was diluted with the external buffer solution to a standard volume (2.5 mL), to afford a solution with a lipid concentration of 0.1 mM. The compounds were added as a DMSO solution (10 μL) and when an assisting ionophore (gramicidin) or oleic acid (a naturally occurring monosaturated fatty acid) was used this was also added as a DMSO solution (5 μL, 0.1 mol% or 2 mol% respectively (with respect to lipid)). To start the experiment, after the addition of the compounds, a base pulse (25 μL, of NMDG or TBAOH (0.5 M)) was spiked in to generate a pH gradient across the membrane. […]

Row | SMILES | pK a (aq) [1] | solubility in the pKa titration solvent system [1] | EC50 NMDG-Cl (by HPTS) [2] | EC50 (Gra) NMDG-Cl (by HPTS) [2] | EC50 (OA) NMDG-Cl (by HPTS) [2]
1 | CCCCCc1cc(/N=C/c2[nH]c3ccccc3c2C)c2[nH]ccc2c1 [Perenosin 7] | 5.51 | – | – | – | –
2 | CCCCCc1cc2cc(C)cc(/N=C/c3[nH]c(C)c(CCCCC)c3C)c2[nH]1 [Perenosin 6] | – | precipitation was observed | 0.00249 mol% | 0.00211 mol% | 0.00208 mol%
3 | CCCCCc1c(C)[nH]c(/C=N/c2cc(C)cc3cc[nH]c23)c1C [Perenosin 5] | 6.44 | – | 0.00231 mol% | 0.00095 mol% | 0.00273 mol%
4 | CCCCCc1cc2cc(C(F)(F)F)cc(/N=C/c3[nH]c(C)cc3C)c2[nH]1 [Perenosin 3] | – | precipitation was observed | 0.01151 mol% | 0.00879 mol% | 0.04912 mol%
5 | CCCCCc1cc2cc(C)cc(/N=C/c3[nH]c(C)cc3C)c2[nH]1 [Perenosin 2] | 6.08 | – | 0.00062 mol% | 0.00037 mol% | 0.00085 mol%
6 | CCCCCc1cc(/N=C/c2[nH]c(C)cc2C)c2[nH]ccc2c1 [Perenosin 1d] | 6.35 | – | 0.0107 mol% and 0.01073 mol% | 0.00656 mol% | 0.00925 mol%
7 | CCCCCc1cc2cc(C)cc(/N=C/c3[nH]c4ccccc4c3C)c2[nH]1 [Perenosin 8] | 6.28 | – | – | – | –
8 | CCCc1cc2cc(C)cc(/N=C/c3[nH]c(C)cc3C)c2[nH]1 [Perenosin 4] | 6.78 | – | 0.00069 mol% | 0.00038 mol% | 0.00008 mol%
